The assay deals with T1, HIV integrase (Human immunodeficiency virus type 1 group M subtype B, UniProt P12497, F1332H).
T1 construct: HIV integrase full length gene; made in house; host or cells: Escherichia coli BL21(DE3), plasmid pET21a-INH
Kind of assay: Determination of enzyme (HIV integrase) inhibitory activity. It counts as biochemical. The following applies: recombinant HIV integrase (F185H), strand transfer ELISA, absorbance at 450 nm. A digest of the protocol: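 Full-length integrase with F185H, expressed in E. coli and purified, was reacted for 60 min at 37 °C with compound and biotinylated donor DNA bound to streptavidin plates. Target DNA was added for 10 min, then anti-digoxigenin-peroxidase detection at A450; IC50 from % inhibition versus enzyme-free blank.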
On the technique in general: ELISA stands for enzyme-linked immunosorbent assay.

Where a name gives a salt, the structure may show the parent alone.

By IC50 is commonly meant the concentration that inhibits the measured activity by half. With `CNC(=O)c1cn2c(CO)cn(Cc3ccc(F)c(Cl)c3)c(=O)c2c(O)c1=O` [Example 222, 2-(3-chloro-4-fluorobenzyl)-9-hydroxy-4-hydroxymethyl-1,8-dioxo-1,8-dihydro-2H-pyrido[1,2-a]pyrazine-7-carboxylic acid methylamide hydrochloride], the IC50 is less than 0.01 µM. For the compound `CC(C)(C)C(=O)c1cn2c(c(O)c1=O)C(=O)N(Cc1cccc(Cl)c1)CC2` [Example 223, 2-(3-chlorobenzyl)-7-(2,2-dimethylpropionyl)-9-hydroxy-3,4-dihydro-2H-pyrido[1,2-a]pyrazine-1,8-dione hydrochloride], the IC50 fell in the range of 0.01 to 0.1 µM. The result for `O=c1ccn2ccn(Cc3ccc(Cl)cc3O)c(=O)c2c1O` [Example 224, 2-(4-chloro-2-hydroxybenzyl)-9-hydroxy-2H-pyrido[1,2-a]pyrazine-1,8-dione hydrochloride] reads 0.01 to 0.1 µM; that for `O=C1c2c(O)c(=O)c(-c3nccs3)cn2CCN1Cc1ccc(F)c(Cl)c1` [Example 225, 2-(3-chloro-4-fluorobenzyl)-9-hydroxy-7-(thiazol-2-yl)-3,4-dihydro-2H-pyrido[1,2-a]pyrazine-1,8-dione], less than 0.01 µM.

Regarding `CN(C(=O)Cn1ccn2ccc(=O)c(O)c2c1=O)c1ccccc1` [Example 226, 2-(9-hydroxy-1,8-dioxo-1,8-dihydro-pyrido[1,2-a]pyrazin-2-yl)-N-methyl-N-phenylacetamide hydrochloride], the IC50 is 0.1 to 1 µM.

Turning to `CNC(=O)c1cn2c(c(O)c1=O)C(=O)N(Cc1ccc(F)c(Cl)c1)CC2` [Example 227, N-methyl-2-(3-chloro-4-fluorobenzyl)-9-hydroxy-1,8-dioxo-1,3,4,8-tetrahydro-2H-pyrido[1,2-a]pyrazine-7-carboxamide], the IC50 fell in the range of 0.01 to 0.1 µM. For `CN(C)C(=O)c1cn2c(c(O)c1=O)C(=O)N(Cc1ccc(F)c(Cl)c1)CC2` [Example 228, N,N-dimethyl-2-(3-chloro-4-fluorobenzyl)-9-hydroxy-1,8-dioxo-1,3,4,8-tetrahydro-2H-pyrido[1,2-a]pyrazine-7-carboxamide] the value was 0.01 to 0.1 µM. For `CC(=O)OCC(C)(C)C(=O)c1cn2ccn(Cc3cccc(Cl)c3)c(=O)c2c(O)c1=O` [Example 229, 3-[2-(3-chlorobenzyl)-9-hydroxy-1,8-dioxo-1,8-dihydro-2H-pyrido[1,2-a]pyrazin-7-yl]-2,2-dimethyl-3-oxopropyl acetate hydrochloride] the value was less than 0.01 µM; for `CC(C)(CO)C(=O)c1cn2ccn(Cc3cccc(Cl)c3)c(=O)c2c(O)c1=O` [Example 230, 2-(3-chlorobenzyl)-9-hydroxy-7-(3-hydroxy-2,2-dimethylpropionyl)-2H-pyrido[1,2-a]pyrazine-1,8-dione hydrochloride], less than 0.01 µM; for `O=c1c(-c2cnccn2)cn2ccn(Cc3cccc(Cl)c3)c(=O)c2c1O` [Example 231, 2-(3-chlorobenzyl)-9-hydroxy-7-(pyrazin-2-yl)-2H-pyrido [1,2-a]pyrazine-1,8-dione hydrochloride], less than 0.01 µM. For the compound `Cn1ncnc1-c1cn2ccn(Cc3cccc(Cl)c3)c(=O)c2c(O)c1=O` [Example 232, 2-(3-chlorobenzyl)-9-hydroxy-7-(2-methyl-2H-1,2,4-triazol-3-yl)-2H-pyrido[1,2-a]pyrazine-1,8-dione hydrochloride], the IC50 is less than 0.01 µM. The result for `O=C(NCCF)c1cn2ccn(Cc3cccc(Cl)c3)c(=O)c2c(O)c1=O` [Example 233, N-(2-fluoroethyl)-2-(3-chlorobenzyl)-9-hydroxy-1,8-dioxo-1,8-dihydro-2H-pyrido[1,2-a]pyrazine-7-carboxamide] reads less than 0.01 µM; that for `CN(Cc1ccccc1)C(=O)c1cn2ccn(Cc3cccc(Cl)c3)c(=O)c2c(O)c1=O` [Example 234, N-benzyl-N-methyl-2-(3-chlorobenzyl)-9-hydroxy-1,8-dioxo-1,8-dihydro-2H-pyrido[1,2-a]pyrazine-7-carboxamide], less than 0.01 µM.

The record behind these values is patent US7211572B2 (Japan Tobacco Inc., priority 2003, dated 2007).
